According to patent publication US12077503B2, “Substituted cyclic amides and their use as herbicides” (FMC CORPORATION, priority 2015, dated 2024):

Assays:
Assay type in all cases: in vivo
[1] = test system: barnyardgrass (Echinochloa crus-galli); assay: Test A preemergence
Method in brief: (§1)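 Preemergence directed soil spray on seeded pots, or postemergence application to plants 2–10 cm, one- to two-leaf. Solvent mixture non-phytotoxic, with surfactant. Scored ~10 d later, visually, 0–100 vs untreated.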

[2] = test system: ragweed (common ragweed, Ambrosia elatior); assay: Test A preemergence
Method in brief: as §1

[3] = test system: pigweed (Amaranthus retroflexus); assay: Test A preemergence
[4] = test system: giant foxtail (Setaria faberii); assay: Test A preemergence
Method in brief: as §1

[5] = test system: ryegrass, Italian (Italian ryegrass, Lolium multiflorum); assay: Test A preemergence
Method in brief: as §1

Kochia (Kochia scoparia) [6] = assay: Test A preemergence
Method in brief: as §1

[7] = test system: sedge, umbrella (small-flower umbrella sedge, Cyperus difformis); assay: Test B flooded paddy test; conditions: Flood, 250 g ai/ha
Method in brief: (§2)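 Flooding to 3 cm over soil accompanied treatment, which consisted of adding compound to the standing water around 2-leaf plants; depth was then maintained. Visual assessment versus controls followed at 13 to 15 d (scale 0–100, 0 meaning no effect).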

[8] = test system: ducksalad (Heteranthera limosa); assay: Test B flooded paddy test; conditions: Flood, 250 g ai/ha; 0 to 100 scale where 0 is no effect and 100 is complete control; 13 to 15 d
Method in brief: as §2

rice (Oryra sativa) = assay: Test B flooded paddy test; conditions: Flood, 250 g ai/ha; 0 to 100 scale where 0 is no effect and 100 is complete control; 13 to 15 d
Method in brief: as §2

[9] = test system: barnyardgrass (Echinochloa crus-galli); assay: Test B flooded paddy test; conditions: Flood, 250 g ai/ha; 0 to 100 scale where 0 is no effect and 100 is complete control; 13 to 15 d
Method in brief: as §2

corn (Zea mays) = assay: Test A postemergence; conditions: postemergence
Method in brief: as §1

[10] = test system: Galium (catchweed bedstraw, Galium aparine); assay: Test A postemergence
Method in brief: as §1

[11] = test system: barnyardgrass (Echinochloa crus-galli); assay: Test A postemergence; conditions: postemergence
Method in brief: as §1

[12] = test system: ragweed (common ragweed, Ambrosia elatior); assay: Test A postemergence
Method in brief: as §1

[13] = test system: blackgrass (Alopecurus myosuroides); assay: Test A postemergence; conditions: postemergence
Method in brief: as §1

[14] = test system: pigweed (Amaranthus retroflexus); assay: Test A postemergence
Method in brief: as §1

[15] = test system: giant foxtail (Setaria faberii); assay: Test A postemergence
Method in brief: as §1

[16] = test system: ryegrass, Italian (Italian ryegrass, Lolium multiflorum); assay: Test A postemergence
Method in brief: as §1

[17] = test system: wheat (Triticum aestivum); assay: Test A postemergence
Method in brief: as §1

Kochia (Kochia scoparia) [18] = assay: Test A postemergence
Method in brief: as §1

[19] = 125 g ai/ha, Preemergence, visual injury after approximately 10 d, 0 to 100 scale where 0 is no effect and 100 is complete control
[20] = 500 g ai/ha, preemergence, 0 to 100 scale, 0 = no effect, 100 = complete control
[21] = 125 g ai/ha, preemergence, visual rating after approx. 10 d, 0 to 100 scale where 0 is no effect and 100 is complete control
[22] = 500 g ai/ha, visual injury, 0 to 100 scale (0 no effect, 100 complete control), approx. 10 d
[23] = 125 g ai/ha, postemergence, visual injury after approximately 10 d, 0 to 100 scale (0 no effect, 100 complete control)
[24] = 500 g ai/ha, postemergence, visual injury, 0 to 100 scale (0 no effect, 100 complete control), approx. 10 d
[25] = 125 g ai/ha, visual rating after approx. 10 d, 0 to 100 scale (0 no effect, 100 complete control)
[26] = 125 g ai/ha, preemergence, 0 to 100 scale (0 no effect, 100 complete control)
[27] = Preemergence, 500 g ai/ha, visual injury approx. 10 d
[28] = 125 g ai/ha, visual injury rating on 0 to 100 scale (0 no effect, 100 complete control), approx. 10 d
[29] = 500 g ai/ha, 0 to 100 scale, 0 no effect, 100 complete control
[30] = 125 g ai/ha, postemergence, visual injury rating on 0 to 100 scale (0 no effect, 100 complete control), approx. 10 d
[31] = Postemergence, 500 g ai/ha, 0 to 100 scale where 0 is no effect and 100 is complete control

CCC1(C(=O)Nc2cccc(F)c2F)C(=O)N(C)CC1c1cccc(C(F)(F)F)c1 (stereo not drawn) [Compound 694]
0: Plant response rating, Ragweed [2, 21] | Plant response rating, Ragweed [2, 20] | Plant response rating, Pigweed [3, 21] | Plant response rating, Pigweed [3, 20] | Plant response rating, Ryegrass, Italian [5, 21] | Plant response rating, Kochia (Kochia (Kochia scoparia) [6]; [19]) | Plant response rating, Kochia (Kochia (Kochia scoparia) [6]; [20]) | Sedge, Umbrella plant response rating ([7]; scale of 0 to 100 where 0 is no effect and 100 is complete control) | Plant response rating, Rice (rice (Oryra sativa)) | Plant response rating, Barnyardgrass [9] | Plant response rating, Corn (corn (Zea mays); 125 g ai/ha, visual injury after approximately 10 d, 0 to 100 scale (0 no effect, 100 complete control)) | Plant response rating, Corn (corn (Zea mays); [22]) | Plant response rating, Galium [10, 23] | Plant response rating, Galium [10, 24] | Plant response rating, Ragweed [12, 23] | Plant response rating, Ragweed [12, 24] | Plant response rating, Ryegrass, Italian [16, 23] | Plant response rating, Wheat [17, 23] | Plant response rating, Wheat [17, 24] | Plant response rating, Kochia (Kochia (Kochia scoparia) [18]; [23]) | Plant response rating, Kochia (Kochia (Kochia scoparia) [18]; [24])
50: Plant response rating, Barnyardgrass [11, 25] | Plant response rating, Pigweed [14, 24] | Plant response rating, Foxtail, Giant [15, 23] | Plant response rating, Ryegrass, Italian [16, 24]
90: Plant response rating, Barnyardgrass [1, 20] | Plant response rating, Foxtail, Giant [4, 19] | Plant response rating, Foxtail, Giant [4, 20]
80: Plant response rating, Foxtail, Giant [15, 24]
10: Plant response rating, Ryegrass, Italian [5, 20] | Plant response rating, Blackgrass [13, 25]
20: Plant response rating, Ducksalad [8] | Plant response rating, Pigweed [14, 23]
30: Plant response rating, Blackgrass [13, 22]
70: Plant response rating, Barnyardgrass [1, 19] | Plant response rating, Barnyardgrass [11, 22]

C=C(Cl)CN1CC(c2cccc(C(F)(F)F)c2)C(C(=O)Nc2cccc(F)c2F)C1=O (stereo not drawn) [Compound 480]
20: Foxtail, Giant plant response rating [15, 30]
50: Plant response rating, Foxtail, Giant [15, 31]
90: Foxtail, Giant plant response rating (0 to 100 scale, 0 is no effect, 100 is complete control) [4, 27]
30: Plant response rating, Barnyardgrass [11, 29] | Plant response rating, Wheat [17, 31]
0: Plant response rating, Barnyardgrass [1, 26] | Barnyardgrass plant response rating (0 to 100 scale, 0 is no effect, 100 is complete control) [1, 27] | Plant response rating, Ragweed [2, 19] | Ragweed plant response rating (0 to 100 scale, 0 is no effect, 100 is complete control) [2, 27] | Plant response rating, Pigweed [3, 19] | Pigweed plant response rating (0 to 100 scale, 0 is no effect, 100 is complete control) [3, 27] | Plant response rating, Ryegrass, Italian [5, 19] | Ryegrass, Italian plant response rating (0 to 100 scale, 0 is no effect, 100 is complete control) [5, 27] | Plant response rating, Kochia (Kochia (Kochia scoparia) [6]; [26]) | Kochia plant response rating (0 to 100 scale, 0 is no effect, 100 is complete control) (Kochia (Kochia scoparia) [6]; [27]) | Plant response rating, Sedge, Umbrella ([7]; 0 to 100 scale where 0 is no effect and 100 is complete control, 13 to 15 d) | Plant response rating, Ducksalad [8] | Plant response rating, Rice (rice (Oryra sativa)) | Plant response rating, Barnyardgrass [9] | Corn plant response rating (corn (Zea mays); [28]) | Plant response rating, Corn (corn (Zea mays); [29]) | Galium plant response rating [10, 30] | Plant response rating, Galium [10, 31] | Barnyardgrass plant response rating [11, 28] | Ragweed plant response rating [12, 30] | Plant response rating, Ragweed [12, 31] | Blackgrass plant response rating [13, 28] | Plant response rating, Blackgrass [13, 29] | Pigweed plant response rating [14, 30] | Plant response rating, Pigweed [14, 31] | Ryegrass, Italian plant response rating [16, 30] | Plant response rating, Ryegrass, Italian [16, 31] | Wheat plant response rating [17, 30] | Kochia plant response rating (Kochia (Kochia scoparia) [18]; [30]) | Plant response rating, Kochia (Kochia (Kochia scoparia) [18]; [31])
70: Plant response rating, Foxtail, Giant [4, 26]
